In ChEMBL document CHEMBL3885861, “Open TG-GATES”:

Species: Rattus norvegicus
Assay: Open TG-GATES - Regimen: Daily Repeat
Format: toxicity, organism-based, Sprague-Dawley
Parameters: regimen Daily Repeat, gender Male, age 6 weeks
Conditions: in vivo, po, 0 mg/kg, route gavage, dose level Control; for APTT / Bas / Eos / Fbg / Hb / Ht / Lym / MCH / MCHC / MCV / Mono / Neu / PT / Plat / RBC / Ret / WBC: tissue Blood; for KIDNEY_L / KIDNEY_R / KIDNEY_TOTAL: tissue Kidney; for LIVER: tissue Liver; for A/G / ALP / ALT / AST / BUN / CRE / Ca / Cl / DBIL / GLC / IP / K / LDH / Na / PL / RALB / TBIL / TC / TG / TP / gamma-GTP: tissue Plasma

SMILES: CNC(=C[N+](=O)[O-])NCCSCc1ccc(CN(C)C)o1 [RANITIDINE]
- TERMINAL_BW (72 h, time 3 day): 234.4 g
- APTT (72 h, time 3 day): 18.8 s
- Bas (72 h, time 3 day): 0%
- Eos (72 h, time 3 day): 1%
- Fbg (72 h, time 3 day): 243.4 mg/dL
- Hb (72 h, time 3 day): 13.9 g/dL
- Ht (72 h, time 3 day): 40.4%
- Lym (72 h, time 3 day): 79.8%
- MCH (72 h, time 3 day): 22.1 pg
- MCHC (72 h, time 3 day): 34.4%
- MCV (72 h, time 3 day): 64.2 fL
- Mono (72 h, time 3 day): 2.6%
- Neu (72 h, time 3 day): 15.2%
- PT (72 h, time 3 day): 11.9 s
- Plat (72 h, time 3 day): 112 x10_4/uL
- RBC (72 h, time 3 day): 629.4 x10_4/ul
- Ret (72 h, time 3 day): 5.1%
- WBC (72 h, time 3 day): 95.3 x10_2/uL
- KIDNEY_L (72 h, time 3 day): 1.1 g
- KIDNEY_R (72 h, time 3 day): 1.1 g
- KIDNEY_TOTAL (72 h, time 3 day): 2.2 g
- LIVER (72 h, time 3 day): 11.5 g
- A/G (72 h, time 3 day): 1.6
- ALP (72 h, time 3 day): 924 IU/L
- ALT (72 h, time 3 day): 35.2 IU/L
- AST (72 h, time 3 day): 66.6 IU/L
- BUN (72 h, time 3 day): 16.6 mg/dL
- CRE (72 h, time 3 day): 0.4 mg/dL
- Ca (72 h, time 3 day): 10.9 mg/dL
- Cl (72 h, time 3 day): 103.8 meq/L
- DBIL (72 h, time 3 day): 0.1 mg/dL
- GLC (72 h, time 3 day): 198.8 mg/dL
- IP (72 h, time 3 day): 7.4 mg/dL
- K (72 h, time 3 day): 4.2 meq/L
- LDH (72 h, time 3 day): 178.4 IU/L
- Na (72 h, time 3 day): 140.4 meq/L
- PL (72 h, time 3 day): 169.6 mg/dL
- RALB (72 h, time 3 day): 3.5 g/dL
- TBIL (72 h, time 3 day): 0.2 mg/dL
- TC (72 h, time 3 day): 92.4 mg/dL
- TG (72 h, time 3 day): 92.4 mg/dL
- TP (72 h, time 3 day): 5.7 g/dL
- gamma-GTP (72 h, time 3 day): 1.2 IU/L
- TERMINAL_BW ([…], time 7 day): 265.4 g
- TERMINAL_BW ([…], time 14 day): 305.8 g
- TERMINAL_BW ([…], time 28 day): 385.4 g
- APTT ([…], time 7 day): 19.3 s
- Bas ([…], time 7 day): 0%
- Eos ([…], time 7 day): 1.2%
- Fbg ([…], time 7 day): 225.8 mg/dL
- Hb ([…], time 7 day): 13.9 g/dL
- Ht ([…], time 7 day): 39.4%
- Lym ([…], time 7 day): 76.6%
- MCH ([…], time 7 day): 21.8 pg
- MCHC ([…], time 7 day): 35.3%
- MCV ([…], time 7 day): 61.7 fL
- Mono ([…], time 7 day): 2.4%
- Neu ([…], time 7 day): 18.4%
- PT ([…], time 7 day): 12.1 s
- Plat ([…], time 7 day): 120.4 x10_4/uL
- RBC ([…], time 7 day): 639 x10_4/ul
- Ret ([…], time 7 day): 4.9%
- WBC ([…], time 7 day): 90.8 x10_2/uL
- APTT ([…], time 14 day): 20.1 s
- Bas ([…], time 14 day): 0%
- Eos ([…], time 14 day): 1%
- Fbg ([…], time 14 day): 238.8 mg/dL
- Hb ([…], time 14 day): 14.8 g/dL
- Ht ([…], time 14 day): 42.2%
- Lym ([…], time 14 day): 75.6%
- MCH ([…], time 14 day): 20.6 pg
- MCHC ([…], time 14 day): 35.2%
- MCV ([…], time 14 day): 58.6 fL
- Mono ([…], time 14 day): 2.4%
- Neu ([…], time 14 day): 19.2%
- PT ([…], time 14 day): 12 s
- Plat ([…], time 14 day): 115.1 x10_4/uL
- RBC ([…], time 14 day): 720.6 x10_4/ul
- Ret ([…], time 14 day): 3.7%
- WBC ([…], time 14 day): 101.2 x10_2/uL
- APTT ([…], time 28 day): 20.9 s
- Bas ([…], time 28 day): 0.4%
- Eos ([…], time 28 day): 1.4%
- Fbg ([…], time 28 day): 223.8 mg/dL
- Hb ([…], time 28 day): 15.6 g/dL
- Ht ([…], time 28 day): 43.7%
- Lym ([…], time 28 day): 77.8%
- MCH ([…], time 28 day): 20 pg
- MCHC ([…], time 28 day): 35.7%
- MCV ([…], time 28 day): 56.2 fL
- Mono ([…], time 28 day): 2.6%
- Neu ([…], time 28 day): 16.8%
- PT ([…], time 28 day): 12.4 s
- Plat ([…], time 28 day): 106.3 x10_4/uL
- RBC ([…], time 28 day): 779.2 x10_4/ul
- Ret ([…], time 28 day): 2%
- WBC ([…], time 28 day): 91.9 x10_2/uL
- KIDNEY_L ([…], time 7 day): 1.1 g
- KIDNEY_R ([…], time 7 day): 1.1 g
- KIDNEY_TOTAL ([…], time 7 day): 2.2 g
- KIDNEY_L ([…], time 14 day): 1.2 g
- KIDNEY_R ([…], time 14 day): 1.2 g
- KIDNEY_TOTAL ([…], time 14 day): 2.4 g
- KIDNEY_L ([…], time 28 day): 1.5 g
- KIDNEY_R ([…], time 28 day): 1.4 g
- KIDNEY_TOTAL ([…], time 28 day): 2.9 g
- LIVER ([…], time 7 day): 12.5 g
- LIVER ([…], time 14 day): 13.5 g
- LIVER ([…], time 28 day): 15.9 g
- A/G ([…], time 7 day): 1.5
- ALP ([…], time 7 day): 967.8 IU/L
- ALT ([…], time 7 day): 31.6 IU/L
- AST ([…], time 7 day): 63.8 IU/L
- BUN ([…], time 7 day): 15.4 mg/dL
- CRE ([…], time 7 day): 0.4 mg/dL
- Ca ([…], time 7 day): 10.6 mg/dL
- Cl ([…], time 7 day): 103.8 meq/L
- DBIL ([…], time 7 day): 0.096 mg/dL
- GLC ([…], time 7 day): 219.2 mg/dL
- IP ([…], time 7 day): 7.4 mg/dL
- K ([…], time 7 day): 3.8 meq/L
- LDH ([…], time 7 day): 164.8 IU/L
- Na ([…], time 7 day): 140.8 meq/L
- PL ([…], time 7 day): 147.4 mg/dL
- RALB ([…], time 7 day): 3.4 g/dL
- TBIL ([…], time 7 day): 0.1 mg/dL
- TC ([…], time 7 day): 73.2 mg/dL
- TG ([…], time 7 day): 103.6 mg/dL
- TP ([…], time 7 day): 5.7 g/dL
- gamma-GTP ([…], time 7 day): 1 IU/L
- A/G ([…], time 14 day): 1.4
- ALP ([…], time 14 day): 885.8 IU/L
- ALT ([…], time 14 day): 38.2 IU/L
- AST ([…], time 14 day): 64.2 IU/L
- BUN ([…], time 14 day): 16.2 mg/dL
- CRE ([…], time 14 day): 0.5 mg/dL
- Ca ([…], time 14 day): 10.6 mg/dL
- Cl ([…], time 14 day): 103 meq/L
- DBIL ([…], time 14 day): 0.088 mg/dL
- GLC ([…], time 14 day): 205.2 mg/dL
- IP ([…], time 14 day): 7.2 mg/dL
- K ([…], time 14 day): 3.9 meq/L
- LDH ([…], time 14 day): 177 IU/L
- Na ([…], time 14 day): 141.2 meq/L
- PL ([…], time 14 day): 140.8 mg/dL
- RALB ([…], time 14 day): 3.5 g/dL
- TBIL ([…], time 14 day): 0.2 mg/dL
- TC ([…], time 14 day): 67.2 mg/dL
- TG ([…], time 14 day): 124.8 mg/dL
- TP ([…], time 14 day): 6 g/dL
- gamma-GTP ([…], time 14 day): 1 IU/L
- A/G ([…], time 28 day): 1.3
- ALP ([…], time 28 day): 677.6 IU/L
- ALT ([…], time 28 day): 31.6 IU/L
- AST ([…], time 28 day): 61.4 IU/L
- BUN ([…], time 28 day): 17.2 mg/dL
- CRE ([…], time 28 day): 0.5 mg/dL
- Ca ([…], time 28 day): 10.4 mg/dL
- Cl ([…], time 28 day): 103 meq/L
- DBIL ([…], time 28 day): 0.092 mg/dL
- GLC ([…], time 28 day): 214.6 mg/dL
- IP ([…], time 28 day): 6.6 mg/dL
- K ([…], time 28 day): 3.9 meq/L
- LDH ([…], time 28 day): 126.8 IU/L
- Na ([…], time 28 day): 140.8 meq/L
- PL ([…], time 28 day): 132.8 mg/dL
- RALB ([…], time 28 day): 3.4 g/dL
- TBIL ([…], time 28 day): 0.1 mg/dL
- TC ([…], time 28 day): 64.2 mg/dL
- TG ([…], time 28 day): 85.8 mg/dL
- TP ([…], time 28 day): 6.2 g/dL
- gamma-GTP ([…], time 28 day): 0.8 IU/L
